Assay results taken from patent US20090062253A1, “HETEROCYCLODIAZEPINE CANNABINOID RECEPTOR MODULATORS FOR TREATMENT OF DISEASE” (KALYPSYS, INC., priority 2007, published 2009).

Assays:
Human CB2 = target: T1, Human CB2 (Homo sapiens, UniProt P34972); assay: Human CB2 Radioligand Binding Assay; conditions: membranes from stably transfected CHO CB2 cells; competition with [3H] CP-55,940; read-out: CB2 Ligand Binding Asssay
T1 construct: expressed in transfected cells; membrane preparation
Method: (§1) This receptor binding filtration assay measures the receptor-ligand interactions of compounds by measuring ability to compete with a radiolabeled control ligand. Reactions were performed in 96 deep-well plate (Costar 3961) with a final volume of 600 ul. Compounds were added to each well either in single point (10 uM final) or dose-response. Compounds were delivered in DMSO or further diluted in incubation buffer to a final assay DMSO concentration of 1%. Incubation buffer (50 mM Tris-HCl pH 7.4, 2.5 mM EGTA, 5 mM MgCl2, 5.0 mg/ml fatty acid free BSA) was added to each well. Following buffer addition, [^3H] CP-55,940 was added. Tritiated CP-55,940 (Perkin Elmer) was used at the Kd determined from prior saturation binding experiments conducted on each lot of membranes. Membrane preparations from stably transfected CHO CB2 cells were added and the reaction was incubated for 90 minutes at 30° C. Unifilter GF/C filtration plates (Perkin Elmer) were pre-wet with 0.05% polyethylenimine. Samples were transferred to Unifilter plates and separation of unbound radioligand was achieved using a vacuum manifold (Millipore). Following thorough washing with 5 ml/well ice-cold wash buffer (50 mM Tris-HCl pH 7.4, 2.5 mM EGTA, 5 mM MgCl2, 0.5 mg/ml fatty acid free BSA), filterplates were dried completely. Betaplate Scint Scintillation cocktail (25 ul, Perkin Elmer) was applied and plates were read using Microbeta Trilux (Wallac). Data analysis was performed in Spotfire. Activity of the positive control (100 nM CP-55,940) was set as 100% efficacy.
Stable recombinant Human CB2-CHO cell membranes were prepared as follows: Chinese Hamster Ovarian (CHO) cells stably expressing human cannabinoid receptor type 2 were grown to ˜90% confluence in 15×100 mm culture dishes under puromycin selection (5 ug/ml) Cells were harvested from culture flasks using a cell scraper, were washed once with cold phosphate-buffered saline (calcium and magnesium free) and pelleted by centrifugation at 400 g for 5 min at 4° C. Cell pellet was washed once with cold phosphate-buffered saline and centrifuged again at 400×g for 5 min at 4° C. The pellet was suspended in ice-cold lysis buffer (10 mM Tris-HCl, 0.1 mM EDTA, containing […], pH 7.5) and homogenized in a chilled 7 ml glass dounce homogenizer using 50 strokes. The homogenate was centrifuged at 400 g for 15 min at 4° C. The cloudy supernatant was collected and centrifuged at 41000 g for 30 min at 4° C. The resulting pellet was washed with ice-cold sucrose-free lysis buffer and centrifuged again at 41000 g for 30 min at 4° C. The membrane pellet was suspended in sucrose-free storage buffer (10 mm Tris-HCl, 0.1 mM EDTA, pH 7.5) to a concentration of 2-3 mg protein/ml. Aliquots were flash frozen in liquid nitrogen and stored at −80° C. Concentration was determined using Dc protein assay kit (Bio-Rad).

[1] = target: T2, human cannabinoid receptor type 1 (Homo sapiens, UniProt P21554); assay: Human CB1 Radioligand Binding Assay (basis of selectivity CB2 vs. CB1)
T2 construct: purchased Perkin Elmer RBHCB1M; host or cells: HEK 293 EBNA cells
T2 sequence (P21554 whole entry): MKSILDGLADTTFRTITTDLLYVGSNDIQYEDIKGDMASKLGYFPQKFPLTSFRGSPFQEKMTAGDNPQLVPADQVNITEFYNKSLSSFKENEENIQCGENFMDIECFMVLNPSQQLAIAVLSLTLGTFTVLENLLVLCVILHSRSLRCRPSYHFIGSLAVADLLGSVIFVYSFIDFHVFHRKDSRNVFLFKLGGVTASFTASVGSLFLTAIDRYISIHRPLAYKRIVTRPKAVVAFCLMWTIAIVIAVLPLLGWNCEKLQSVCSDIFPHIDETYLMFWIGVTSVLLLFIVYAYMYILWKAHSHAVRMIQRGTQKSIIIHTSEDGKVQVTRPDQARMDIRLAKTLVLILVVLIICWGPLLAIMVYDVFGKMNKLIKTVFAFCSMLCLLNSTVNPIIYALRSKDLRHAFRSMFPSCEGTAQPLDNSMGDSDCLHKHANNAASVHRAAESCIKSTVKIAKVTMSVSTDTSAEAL
Method: as §1
The CB1 binding assay was performed as described above except that HEK 293 EBNA cells expressing human cannabinoid receptor type 1 (Perkin Elmer cat #RBHCB1M) were used according the manufacturer's instructions. The incubation buffer was composed of 50 mM Tris-HCl pH 7.4, 2.5 mM EDTA, 5 mM MgCl2, 5.0 mg/ml fatty acid free BSA and the wash buffer was composed of 50 mM Tris-HCl pH 7.4, 2.5 mM EDTA, 5 mM MgCl2, 0.5 mg/ml fatty acid free BSA. Activity of the positive control (100 nM CP-55,940) was set as 100% efficacy.

T1 sequence (P34972 whole entry): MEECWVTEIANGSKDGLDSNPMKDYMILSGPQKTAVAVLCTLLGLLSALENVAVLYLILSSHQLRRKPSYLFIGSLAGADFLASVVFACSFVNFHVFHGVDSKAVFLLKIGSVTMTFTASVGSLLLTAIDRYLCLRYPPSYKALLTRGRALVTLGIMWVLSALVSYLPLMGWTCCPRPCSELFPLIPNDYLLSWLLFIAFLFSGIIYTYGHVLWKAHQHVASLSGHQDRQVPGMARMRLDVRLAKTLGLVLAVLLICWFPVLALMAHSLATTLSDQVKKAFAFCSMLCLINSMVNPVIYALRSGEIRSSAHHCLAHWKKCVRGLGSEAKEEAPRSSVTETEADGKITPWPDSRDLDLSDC

CC(C)(C)c1ccc(C2c3cccn3CCC2C(=O)Nc2ccc(F)c(F)c2)cc1 (mixture of isomers) [Example 95, 8-(4-tert-Butylphenyl)-N-(3,4-difluorophenyl)-5,6,7,8-tetrahydroindolizine-7-carboxamide]
IC50 (radioligand displacement) (Human CB2): < 1 µM
Selectivity, CB2 vs. CB1 [1]: + (+ indicates > 10-fold)

O=C(Nc1ccc(F)cc1F)C1CCn2cccc2C1c1ccccc1 (mixture of isomers) [Example 100, N-(2,4-Difluorophenyl)-8-phenyl-5,6,7,8-tetrahydroindolizine-7-carboxamide]
IC50 (radioligand displacement) (Human CB2): > 1 µM
Selectivity, CB2 vs. CB1 [1]: − (− indicates < 10-fold)

O=C(Nc1ccc(F)c(F)c1)C1CCn2cccc2C1c1ccccc1 (mixture of isomers) [Example 101, N-(3,4-Difluorophenyl)-8-phenyl-5,6,7,8-tetrahydroindolizine-7-carboxamide]
IC50 (radioligand displacement) (Human CB2): > 1 µM
Selectivity, CB2 vs. CB1 [1]: − (− indicates < 10-fold)

O=C(Nc1ccc(Cl)cc1)C1CCn2cccc2C1c1ccccc1 (mixture of isomers) [Example 102, N-(4-Chlorophenyl)-8-phenyl-5,6,7,8-tetrahydroindolizine-7-carboxamide]
IC50 (radioligand displacement) (Human CB2): > 1 µM
Selectivity, CB2 vs. CB1 [1]: − (− indicates < 10-fold)

O=C(Nc1ccc(C(F)(F)F)cc1)C1CCn2cccc2C1c1ccccc1 (mixture of isomers) [Example 103, 8-Phenyl-N-(4-(trifluoromethyl)phenyl)-5,6,7,8-tetrahydroindolizine-7-carboxamide]
IC50 (radioligand displacement) (Human CB2): > 1 µM
Selectivity, CB2 vs. CB1 [1]: − (− indicates < 10-fold)

O=C(Nc1ccc(OC(F)(F)F)cc1)C1CCn2cccc2C1c1ccccc1 (mixture of isomers) [Example 104, 8-Phenyl-N-(4-(trifluoromethoxy)phenyl)-5,6,7,8-tetrahydroindolizine-7-carboxamide]
IC50 (radioligand displacement) (Human CB2): > 1 µM
Selectivity, CB2 vs. CB1 [1]: − (− indicates < 10-fold)

CC(C)(C)c1ccc(C2c3cccn3CCCC2NC(=O)Nc2ccc(Cl)cc2)cc1 (mixture of isomers) [Example 115, 1-(9-(4-tert-Butylphenyl)-6,7,8,9-tetrahydro-5H-pyrrolo[1,2-a]azepin-8-yl)-3-(4-chlorophenyl)urea]
IC50 (radioligand displacement) (Human CB2): > 1 µM
Selectivity, CB2 vs. CB1 [1]: + (+ indicates > 10-fold)

CC(C)(C)c1ccc(C2c3cccn3CCN2C(=O)Nc2ccc(Cl)cc2Cl)cc1 (stereo not drawn) [Example 3, 1-(4-tert-Butylphenyl)-N-(2,4-dichlorophenyl)-3,4-dihydropyrrolo[1,2-a]pyrazine-2(1H)-carboxamide]
IC50 (radioligand displacement) (Human CB2): < 1 µM

CC(C)(C)c1ccc(C2NCCCn3cccc32)cc1 (stereo not drawn) [Example 6, 1-(4-tert-Butylphenyl)-2,3,4,5-tetrahydro-1H-pyrrolo[1,2-a][1,4]diazepine]
IC50 (radioligand displacement) (Human CB2): > 1 µM

Cc1ccc(C2c3cccn3CCCN2C(=O)Nc2ccc(Cl)cc2Cl)cc1 (stereo not drawn) [Example 9, N-(2,4-Dichlorophenyl)-1-p-tolyl-4,5-dihydro-1H-pyrrolo[1,2-a][1,4]diazepine-2(3H)-carboxamide]
IC50 (radioligand displacement) (Human CB2): < 1 µM

O=C(Nc1ccc(F)cc1F)N1CCCn2cccc2C1c1ccc(OC(F)(F)F)cc1 (stereo not drawn) [Example 15, N-(2,4-Difluorophenyl)-1-(4-(trifluoromethoxy)phenyl)-4,5-dihydro-1H-pyrrolo[1,2-a][1,4]diazepine-2(3H)-carboxamide]
IC50 (radioligand displacement) (Human CB2): < 1 µM

O=C(Nc1ccc(Cl)cc1Cl)N1CCCn2cccc2C1c1ccc(OC(F)(F)F)cc1 (stereo not drawn) [Example 16]
IC50 (radioligand displacement) (Human CB2): > 1 µM

O=C(Nc1ccc(C(F)(F)F)cc1)C1=C(c2ccccc2)c2cccn2CC1 [Example 68, 8-Phenyl-N-(4-(trifluoromethyl)phenyl)-5,6-dihydroindolizine-7-carboxamide]
IC50 (radioligand displacement) (Human CB2): > 1 µM

O=C(Nc1ccc(F)cc1F)C1=C(c2ccccc2)c2cccn2CC1 [Example 70, N-(2,4-Difluorophenyl)-8-phenyl-5,6-dihydroindolizine-7-carboxamide]
IC50 (radioligand displacement) (Human CB2): > 1 µM
